Consider six compounds from ChEMBL document CHEMBL1146989 (Bioorg Med Chem Lett, 2006).

The target of this assay is PI3-kinase p110-alpha/p85-alpha (Homo sapiens, UniProt P42336). The assay can be described thus: Inhibition of PI3 kinase p110alpha/p85-alpha complex. Type of assay: protein-complex assay.
Chain of PI3-kinase p110-alpha/p85-alpha (P27986 whole entry): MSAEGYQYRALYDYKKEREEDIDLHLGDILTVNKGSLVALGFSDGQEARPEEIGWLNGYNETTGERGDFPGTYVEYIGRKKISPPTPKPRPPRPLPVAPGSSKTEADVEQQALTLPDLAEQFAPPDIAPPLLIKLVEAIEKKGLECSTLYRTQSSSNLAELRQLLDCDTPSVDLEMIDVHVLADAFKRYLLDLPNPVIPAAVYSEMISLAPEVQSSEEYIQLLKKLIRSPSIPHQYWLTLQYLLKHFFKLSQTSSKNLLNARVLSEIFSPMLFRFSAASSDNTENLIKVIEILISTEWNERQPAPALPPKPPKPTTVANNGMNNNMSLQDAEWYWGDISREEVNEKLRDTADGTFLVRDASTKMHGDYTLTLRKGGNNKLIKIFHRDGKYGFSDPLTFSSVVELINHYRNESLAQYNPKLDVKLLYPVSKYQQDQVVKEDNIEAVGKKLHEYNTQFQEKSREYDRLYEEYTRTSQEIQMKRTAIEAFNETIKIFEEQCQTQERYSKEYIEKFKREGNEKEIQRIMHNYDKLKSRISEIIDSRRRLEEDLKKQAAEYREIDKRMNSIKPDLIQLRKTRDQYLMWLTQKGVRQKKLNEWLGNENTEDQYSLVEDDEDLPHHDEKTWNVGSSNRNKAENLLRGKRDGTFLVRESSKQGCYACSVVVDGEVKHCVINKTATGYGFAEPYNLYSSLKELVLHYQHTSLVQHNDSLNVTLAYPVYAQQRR
Chain of PI3-kinase p110-alpha/p85-alpha (P42336 whole entry): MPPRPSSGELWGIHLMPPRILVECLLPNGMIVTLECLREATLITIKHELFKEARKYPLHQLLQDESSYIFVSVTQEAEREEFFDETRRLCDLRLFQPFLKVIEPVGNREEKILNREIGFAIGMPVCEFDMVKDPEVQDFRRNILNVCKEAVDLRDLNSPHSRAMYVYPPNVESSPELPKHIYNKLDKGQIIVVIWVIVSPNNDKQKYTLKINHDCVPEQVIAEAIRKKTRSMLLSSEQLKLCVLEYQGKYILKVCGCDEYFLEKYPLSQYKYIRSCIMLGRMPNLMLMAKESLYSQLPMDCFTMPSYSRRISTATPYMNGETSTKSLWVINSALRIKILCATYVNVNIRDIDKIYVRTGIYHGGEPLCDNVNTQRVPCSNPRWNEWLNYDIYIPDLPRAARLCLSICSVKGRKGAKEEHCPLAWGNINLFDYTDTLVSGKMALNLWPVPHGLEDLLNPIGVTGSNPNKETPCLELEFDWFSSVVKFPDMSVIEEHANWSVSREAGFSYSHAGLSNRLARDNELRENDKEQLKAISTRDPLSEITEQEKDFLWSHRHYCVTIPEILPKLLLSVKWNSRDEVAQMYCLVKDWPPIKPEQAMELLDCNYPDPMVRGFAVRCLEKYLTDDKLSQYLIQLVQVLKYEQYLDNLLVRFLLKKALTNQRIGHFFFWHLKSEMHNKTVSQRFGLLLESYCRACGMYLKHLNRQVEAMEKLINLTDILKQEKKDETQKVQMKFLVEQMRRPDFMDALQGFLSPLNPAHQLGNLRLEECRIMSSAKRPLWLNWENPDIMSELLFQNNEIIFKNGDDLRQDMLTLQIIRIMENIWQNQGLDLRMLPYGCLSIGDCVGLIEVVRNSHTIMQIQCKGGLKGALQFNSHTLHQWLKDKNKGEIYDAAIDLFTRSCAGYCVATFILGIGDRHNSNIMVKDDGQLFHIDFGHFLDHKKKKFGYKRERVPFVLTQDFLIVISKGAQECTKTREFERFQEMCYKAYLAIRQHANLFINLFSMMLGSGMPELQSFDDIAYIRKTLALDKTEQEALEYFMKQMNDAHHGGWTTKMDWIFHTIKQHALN
Consider `COC[C@H]1OC(=O)c2coc3c2[C@@]1(C)C1=C(C3=O)C2CC[C@H](OC(=O)CN(C)c3ccc([N+](=O)[O-])c4nonc34)[C@@]2(C)C[C@H]1OC(C)=O` (stereo partly specified), for which it took 225 nM to reach half-maximal inhibition (IC50). This counts as sub-micromolar. Consider `COC[C@H]1OC(=O)c2coc3c2[C@@]1(C)C1=C(C3=O)C2CCC(=O)[C@@]2(C)C[C@H]1OC(=O)Cc1cc(=O)oc2cc(N(C)C)ccc12` (stereo partly specified), for which it took 10.1 nM to reach half-maximal inhibition (IC50). Regarding `CN(CC(=O)O[C@@H]1CC(=O)c2coc3c2[C@@]1(C)c1ccc2c(c1C3=O)CCC2=O)c1ccc([N+](=O)[O-])c2nonc12`, inhibition was half-maximal at 9.6 nM (IC50). On to `COC[C@H]1OC(=O)c2coc3c2[C@@]1(C)C1=C(C3=O)C2CC[C@H](OC(=O)Cc3cc(=O)oc4cc(N(C)C)ccc34)[C@@]2(C)C[C@H]1OC(C)=O` (stereo partly specified), for which the midpoint of inhibition, the IC50, lay at 695 nM. This IC50 is about 72-fold higher than that of the compound before. Take `CN(C)c1ccc2c(CC(=O)O[C@@H]3CC(=O)c4coc5c4[C@@]3(C)c3ccc4c(c3C5=O)CCC4=O)cc(=O)oc2c1`: half-maximal inhibition (IC50) was put at 1.9 nM. This IC50 is about 370-fold lower than that of the compound before.

The compound `COC[C@H]1OC(=O)c2coc3c2[C@@]1(C)C1=C(C3=O)C2CCC(=O)[C@@]2(C)C[C@H]1OC(=O)CN(C)c1ccc([N+](=O)[O-])c2nonc12` (stereo partly specified) came in with an IC50 of 0.7 nM.

Broadly, the IC50 is the concentration that gives 50% inhibition.
